Read-outs that look alike come from different tables or passages of the source.
What was measured:
PARP1 = PARP1 (Homo sapiens (Human), UniProt P09874); test: PARP1 protein expression level in MDA-MB-436 cells; type: cell-based; conditions: 100 nM, 24 hours
Method: (§1) MDA-MB-436 cells were placed in a complete DMEM medium (supplemented with 15% FBS; 10 μg/mL Insulin; 16 μg/mL Glutathione and 1% penicillin-streptomycin solution), and cultured at 37° C. under CO2-free conditions. The cells in the logarithmic growth phase were collected, the cell density was adjusted to 2×10^5 cells/well with the culture medium, and the cells were added to a 6-well cell culture plate at a volume of 1 mL/well. The compound to be tested was prepared to 2-fold the final concentration, 1 mL of the compounds at different concentrations were added to administration wells, a medium containing 0.2% DMSO was added to control wells, and the plate was incubated for 24 hours at 37° C. The cells were collected into a 1.5 mL centrifuge tube, 25 μL of RIPA lysis buffer (containing 1× protease inhibitor cocktail) was added, and the cells were lysed on ice for 15 minutes and centrifuged at 12000 rpm/min at 4° C. for 10 minutes. The supernatant was collected and the protein content was determined using the BCA method. The protein sample to be tested was diluted to 0.8 mg/mL, PARP1 was detected using a fully automated protein expression quantitative analyzer (ProteinSimple), and the internal reference protein was 3-actin (both antibodies were from CST). The software (Compass for SW) of the fully automated protein expression quantitative analyzer was used to process the raw data and calculate the peak area and the PARP1 expression rate relative to the control group.
as §1, with “L-15” for “DMEM”, “mL/well and cultured overnight. On day 2, the” for “mL/well. The”, “group. DC50 values were calculated using a four-parameter non-linear fitting model in Graphpad 8.3.0 software.” for “group.”

[1] = tested on: breast tumor cells MDA-MB-436; test: MDA-MB-436 cell activity test (CellTiter-Glo, 7 days); type: cell-based, human; conditions: for IC50: 7 days incubation, read-out: IC50 (nM), MDA-MB-436 cell inhibitory activity; for inhibition at 10 µM: MDA-MB-436, MDA-MB-436 cells, read-out: Max inh. % 10 μM
Method: Breast tumor cells MDA-MB-436 were purchased from ATCC, the culture medium was Leibovitz's L-15+10% FBS, and the cells were cultured in a CO2-free incubator at 37° C. On day 1, the cells in the exponential growth phase were collected, and the cell suspension was adjusted to 4000 cells/135 μL with the culture medium. 135 μL of the cell suspension was added to each well of a 96-well cell culture plate and incubated overnight. On day 2, compounds at different concentrations were added, and the plate was placed in the incubator and incubated for 7 days. After the culture was completed, according to operation instructions for a CellTiter-Glo kit (Promega, G7573), 75 μL of CTG solution, which was already pre-melted and equilibrated to room temperature, was added to each well, and the mixture was uniformly mixed for 2 minutes using a microplate shaker. The plate was placed at room temperature for 10 minutes, and then […] signal values were determined using an Envision2104 plate reader (PerkinElmer). The inhibition rate was calculated using formula (1), where RLUcompound was the readout of the drug treated group, RLUcontrol was the average value of the solvent control group, and RLUblank was the average value of the cell-free well. The IC50 value was calculated using GraphPad Prism software.

[2] = Homo sapiens, MDA-MB-436, 168 h, MDA-MB-436 cells

Chain of PARP1 (P09874 whole entry): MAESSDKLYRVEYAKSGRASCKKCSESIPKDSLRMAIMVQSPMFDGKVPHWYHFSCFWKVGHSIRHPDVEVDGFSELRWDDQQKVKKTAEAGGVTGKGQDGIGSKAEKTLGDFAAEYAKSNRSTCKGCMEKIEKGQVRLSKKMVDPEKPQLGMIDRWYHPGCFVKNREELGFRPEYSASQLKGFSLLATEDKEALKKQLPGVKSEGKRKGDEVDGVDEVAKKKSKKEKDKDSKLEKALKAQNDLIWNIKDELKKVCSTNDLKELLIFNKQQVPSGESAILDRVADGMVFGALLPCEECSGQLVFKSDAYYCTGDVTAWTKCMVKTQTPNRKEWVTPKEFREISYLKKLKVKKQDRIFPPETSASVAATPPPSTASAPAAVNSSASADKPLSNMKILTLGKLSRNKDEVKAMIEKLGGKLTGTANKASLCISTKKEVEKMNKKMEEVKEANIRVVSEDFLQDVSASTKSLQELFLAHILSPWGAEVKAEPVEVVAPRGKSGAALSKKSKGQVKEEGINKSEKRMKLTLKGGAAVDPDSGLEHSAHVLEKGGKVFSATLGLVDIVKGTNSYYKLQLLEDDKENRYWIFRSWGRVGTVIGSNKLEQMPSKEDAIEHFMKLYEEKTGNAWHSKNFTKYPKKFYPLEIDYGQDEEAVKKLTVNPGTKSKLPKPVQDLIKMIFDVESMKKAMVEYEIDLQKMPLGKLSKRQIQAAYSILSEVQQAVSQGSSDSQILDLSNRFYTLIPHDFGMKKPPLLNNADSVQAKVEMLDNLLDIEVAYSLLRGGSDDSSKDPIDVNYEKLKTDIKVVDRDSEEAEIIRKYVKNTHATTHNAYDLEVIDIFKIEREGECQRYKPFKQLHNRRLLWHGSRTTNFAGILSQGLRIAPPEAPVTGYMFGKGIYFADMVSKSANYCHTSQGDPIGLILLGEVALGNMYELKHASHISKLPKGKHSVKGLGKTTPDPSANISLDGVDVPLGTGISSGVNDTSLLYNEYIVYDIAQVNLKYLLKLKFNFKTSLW

| SMILES | PARP1 degradation rate @ 100 nM (PARP1) [%] | IC50 [1, 2] [nM] | IC50 ([1]; MDA-MB-436 cells) [nM] | inhibition at 10 µM ([1]; Homo sapiens, 10 μM) [%] | Max inh. % 10 μM ([1]; MDA-MB-436 cells, 10 μM) [%] |
| --- | --- | --- | --- | --- | --- |
| CCc1cc2ncc(CN3CCN(c4ccc(C(=O)NC5CCN(C6CN(c7cc8c(cc7F)C(=O)N(C7CCC(=O)NC7=O)C8=O)C6)CC5)nc4)CC3)cc2[nH]c1=O (stereo not shown) [Compound 26, N-(1-(1-(2-(2,6-dioxopiperidin-3-yl)-6-fluoro-1,3-dioxoisoindolin-5-yl)azetidin-3-yl)piperidin-4-yl)-5-(4-((7-ethyl-6-oxo-5,6-dihydro-1,5-naphthyridin-3-yl)methyl)piperazin-1-yl)picolinamide] | 83.5 | 53 |  | 81.7 |  |
| CCc1cc2ncc(CN3CCN(c4ccc(C(=O)Nc5cnn(C6CCN(c7ccc8c(c7)C(=O)N(C7CCC(=O)NC7=O)C8=O)CC6)c5)nc4)CC3)cc2[nH]c1=O (stereo not shown) [Compound 57, N-(1-(1-(2-(2,6-dioxopiperidin-3-yl)-1,3-dioxoisoindolin-5-yl)piperidin-4-yl)-1H-pyrazol-4-yl)-5-(4-((7-ethyl-6-oxo-5,6-dihydro-1,5-naphthyridin-3-yl)methyl)piperazin-1-yl)picolinamide] | 80.6 | 15.8 |  | 84 |  |
| CCc1cc2ncc(CN3CCN(c4ccc(C(=O)NC5CN(c6cccc7c6C(=O)N(C6CCC(=O)NC6=O)C7=O)C5)nc4)CC3)cc2[nH]c1=O (stereo not shown) [Compound 16, N-(1-(2-(2,6-dioxopiperidin-3-yl)-1,3-dioxoisoindolin-4-yl)azetidin-3-yl)-5-(4-((7-ethyl-6-oxo-5,6-dihydro-1,5-naphthyridin-3-yl)methyl)piperazin-1-yl)picolinamide] |  | 15 |  | 78.8 |  |
| CCc1cc2ncc(CN3CCN(c4ccc(C(=O)NC5CCC(Oc6ccc7c(c6)C(=O)N(C6CCC(=O)NC6=O)C7=O)CC5)nc4)CC3)cc2[nH]c1=O (stereo not shown) [Compound 67, N-((1s,4s)-4-((2-(2,6-dioxopiperidin-3-yl)-1,3-dioxoisoindolin-5-yl)oxy)cyclohexyl)-5-(4-((7-ethyl-6-oxo-5,6-dihydro-1,5-naphthyridin-3-yl)methyl)piperazin-1-yl)picolinamide] |  |  | 100 |  | 96.2 |
| CCc1cc2ncc(CN3CCN(c4ccc(C(=O)NC5CN(C(=O)CC67CC8C[C@H](C6)C[C@H](C8)C7)C5)nc4)CC3)cc2[nH]c1=O [Compound 13, N-(1-(2-((3R,5R)-adamantan-1-yl)acetyl)azetidin-3-yl)-5-(4-((7-ethyl-6-oxo-5,6-dihydro-1,5-naphthyridin-3-yl)methyl)piperazin-1-yl)picolinamide] |  | 5 |  | 89.7 |  |
| CCc1cc2ncc(CN3CCN(c4ccc(C(=O)N[C@H]5CC[C@@H](Nc6ccc7c(c6)C(=O)N(C6CCC(=O)NC6=O)C7=O)CC5)nc4)CC3)cc2[nH]c1=O (stereo partly shown) [Compound 27, N-((1s,4s)-4-((2-(-2,6-dioxopiperidin-3-yl)-1,3-dioxoisoindolin-5-yl)amino)cyclohexyl)-5-(4-((7-ethyl-6-oxo-5,6-dihydro-1,5-naphthyridin-3-yl)methyl)piperazin-1-yl)picolinamide] |  | 15 |  | 95.8 |  |
| CCc1cc2ncc(CN3CCN(c4ccc(C(=O)NC5CCN(C6CN(c7cccc8c7C(=O)N(C7CCC(=O)NC7=O)C8=O)C6)CC5)nc4)CC3)cc2[nH]c1=O (stereo not shown) [Compound 15, N-(1-(1-(2-(2,6-dioxopiperidin-3-yl)-1,3-dioxoisoindolin-4-yl)azetidin-3-yl)piperidin-4-yl)-5-(4-((7-ethyl-6-oxo-5,6-dihydro-1,5-naphthyridin-3-yl)methyl)piperazin-1-yl)picolinamide] |  | 25 |  | 87.2 |  |
| CCc1cc2ncc(CN3CCN(c4ccc(C(=O)N[C@H]5C[C@H](Oc6ccc7c(c6)C(=O)N(C6CCC(=O)NC6=O)C7=O)C5)nc4)CC3)cc2[nH]c1=O (stereo partly shown) [Compound 59, N-((1r,3r)-3-((2-(2,6-dioxopiperidin-3-yl)-1,3-dioxoisoindolin-5-yl)oxy)cyclobutyl)-5-(4-((7-ethyl-6-oxo-5,6-dihydro-1,5-naphthyridin-3-yl)methyl)piperazin-1-yl)picolinamide] |  | 38 |  | 81.7 |  |

Continued, in another order:

| PARP1 degradation rate @ 100 nM (PARP1) [%] | IC50 [1, 2] [nM] | IC50 ([1]; MDA-MB-436 cells) [nM] | SMILES | inhibition at 10 µM ([1]; Homo sapiens, 10 μM) [%] | Max inh. % 10 μM ([1]; MDA-MB-436 cells, 10 μM) [%] |
| --- | --- | --- | --- | --- | --- |
| 76.4 | 97.8 |  | CCc1cc2ncc(CN3CCN(c4ccc(C(=O)NC5CCC(Oc6ccc7c(c6)C(=O)N(C6CCC(=O)NC6=O)C7=O)CC5)nc4)CC3)cc2[nH]c1=O (stereo not shown) [Compound 66, N-((1r,4r)-4-((2-(2,6-dioxopiperidin-3-yl)-1,3-dioxoisoindolin-5-yl)oxy)cyclohexyl)-5-(4-((7-ethyl-6-oxo-5,6-dihydro-1,5-naphthyridin-3-yl)methyl)piperazin-1-yl)picolinamide] | 93.2 |  |
| 92.1 |  |  | CCc1cc2ncc(CN3CCN(c4ccc(C(=O)NC5CCN(c6ccc7c(c6)CN(C6CCC(=O)NC6=O)C7=O)CC5)nc4)CC3)cc2[nH]c1=O (stereo not shown) [Compound 31, N-(1-(2-(2,6-dioxopiperidin-3-yl)-1-oxoisoindolin-5-yl)piperidin-4-yl)-5-(4-((7-ethyl-6-oxo-5,6-dihydro-1,5-naphthyridin-3-yl)methyl)piperazin-1-yl)picolinamide] |  |  |
|  | 39.5 |  | CCc1cc2ncc(CN3CC=C(c4ccc(C(=O)NC5CCN(c6cccc(NC7CCC(=O)NC7=O)c6)CC5)nc4)CC3)cc2[nH]c1=O (stereo not shown) [Compound 65, N-(1-(3-((2,6-dioxopiperidin-3-yl)amino)phenyl)piperidin-4-yl)-1′-((7-ethyl-6-oxo-5,6-dihydro-1,5-naphthyridin-3-yl)methyl)-1′,2′,3′,6′-tetrahydro-[3,4′-bipyridine]-6-carboxamide] | 76.8 |  |
|  | 17.9 |  | CCc1cc2ncc(CN3CCN(c4ccc(C(=O)NC5CCN(c6cccc(N7CCC(=O)NC7=O)c6)CC5)nc4)CC3)cc2[nH]c1=O [Compound 62, N-(1-(3-(2,4-dioxotetrahydropyrimidin-1(2H)-yl)phenyl)piperidin-4-yl)-5-(4-((7-ethyl-6-oxo-5,6-dihydro-1,5-naphthyridin-3-yl)methyl)piperazin-1-yl)picolinamide] | 82.9 |  |
|  | 16.1 |  | CCc1cc2ncc(CN3CC=C(c4ccc(C(=O)NC5CCN(c6cccc(N7CCC(=O)NC7=O)c6)CC5)nc4)CC3)cc2[nH]c1=O [Compound 63, N-(1-(3-(2,4-dioxotetrahydropyrimidin-1(2H)-yl)phenyl)piperidin-4-yl)-1′-((7-ethyl-6-oxo-5,6-dihydro-1,5-naphthyridin-3-yl)methyl)-1′,2′,3′,6′-tetrahydro-[3,4′-bipyridine]-6-carboxamide] | 83.1 |  |
| 76.2 | 38 |  | CCc1cc2ncc(CN3CCN(c4ccc(C(=O)NC5CC6(C5)CN(c5ccc7c(c5)C(=O)N(C5CCC(=O)NC5=O)C7=O)C6)nc4)CC3)cc2[nH]c1=O (stereo not shown) [Compound 24, N-(2-(2-(2,6-dioxopiperidin-3-yl)-1,3-dioxoisoindolin-5-yl)-2-azaspiro[3.3]heptan-6-yl)-5-(4-((7-ethyl-6-oxo-5,6-dihydro-1,5-naphthyridin-3-yl)methyl)piperazin-1-yl)picolinamide] | 98.9 |  |
